# Results: patent US8105796B2, “Regulation of expression of PI3Kβ protein in tumors” (Universita' Degli Studi di Torino, priority 2007, dated 2012)
# Assays:
# PI3Kβ^+/+ MEFs = experiment: Proliferation curve of mouse embryonic fibroblasts (MEFs) with p110β inhibitors; format: cell-based
# Procedure: FIG. 3. PI3Kβ^KR expression dosage inversely correlates with phenotype severity. a) MEFs were derived from normal (PI3Kβ^KR/KR(High)) or abnormal PI3Kβ^KR/KR (Low)) embryos and the expression level of the PI3Kβ^KR/KR protein was analyzed by SDS-PAGE and immunoblotting, using the indicated antibodies. b) analysis of p110β catalytic activity. Lipid kinase assay was performed on p110β immunoprecipitated from wild type (PI3Kβ^+/+) and PI3Kβ^KR/KR(High) MEFs. c) proliferation curve of mutant MEFs with high and low PI3Kβ^KR expression levels compared to that of wild-type MEFs with or without 100 nM TGX-221 treatment (TGX).
# Since p110β is activated downstream growth factor receptors, and cell growth is the driving force during embryonic development, the present inventors analyzed cell proliferation of PI3Kβ^KR/KR(High), PI3Kβ^KR/KR(Low) and PI3Kβ^+/+ MEFs.
# [1] = test system: Akt/PKB phosphorylation in liver; experiment: Insulin-stimulated Akt phosphorylation in liver of treated mice; format: in vivo, mouse
# Procedure: FIG. 5. After insulin stimulation, Akt phosphorylation declines in PI3Kβ^KR/KR liver faster than controls. Phosphorylation of Erk1/2 and Akt (on Thr308 and Ser473) in livers of mice of the given genotype with and without TGX-155 treatment. Lower panel: quantification of Akt phosphorylation on Ser473 (n=5)
# To test this hypothesis, Akt/PKB phosphorylation was tested in wild-type and mutant mice in tissues known to be particularly sensitive to insulin signaling like the liver.
# [2] = test system: wild-type (PI3Kβ^+/+/neuT) tumor derived mammary gland cancer cells; experiment: Proliferation curves of cultured tumor derived mammary gland cancer cells; format: cell-based, mouse; settings: wild-type tumor cells (FIG. 10)
# Procedure: FIG. 10. Requirement of PI3Kβ for cell proliferation of tumor derived mammary gland cancer cell lines. Proliferation curves of cultured tumor cells of the two genotypes in the absence or presence of TGX-155 (10 μM) and TGX-221 (100 nM)p110β selective inhibitors. Statistical significance: wild-type cells vs all other conditions; other pairs of datasets: n.s.
# Moreover, to further test if the protection against breast cancer development was intrinsic to the lack of the kinase activity, tumor cells from PI3Kβ^KR/KR and PI3Kβ^+/+ mice were cultured in the presence of p110β selective inhibitors, TGX-155 and TGX-221.
SMILES,"growth rate (cell proliferation) of MEFs (PI3Kβ^+/+ MEFs; PI3Kβ^+/+ MEFs treated with TGX-155, versus controls)","Akt phosphorylation after 5 minutes of insulin stimulation ([1]; liver of wild type mice treated with TGX-155, 5 minutes of insulin stimulation (FIG. 5))","decline of Akt activation after insulin stimulation ([1]; liver, later time of insulin stimulation, versus untreated wild-type controls (FIG. 5))",proliferation of wild-type tumor cells ([2]; TGX-155 10 μM),"growth rate (cell proliferation) of MEFs (PI3Kβ^+/+ MEFs; PI3Kβ^+/+ MEFs, 100 nM TGX-221, versus controls (FIG. 3c))",proliferation of wild-type tumor cells ([2]; TGX-221 100 nM)
Cc1cc(F)ccc1Oc1cccc2c(=O)cc(N3CCOCC3)[nH]c12 [TGX-155],growth rate comparable to that of the controls,no differences in Akt phosphorylation,declined significantly faster,significant reduction in proliferation,,
Cc1cc(C(C)Nc2ccccc2)c2nc(N3CCOCC3)cc(=O)n2c1 (stereo not drawn) [TGX-221],,,,,growth rate comparable to that of the controls,significant reduction in proliferation
